From US7585859B2, “PDE4B inhibitors and uses therefor” (Plexxikon, Inc., priority 2004, dated 2009)

Columns and labels:
[1] = target: T1, full-length human PDE4B2 isozyme (Homo sapiens, UniProt Q07343); assay: PDE4 IC50 determination by Scintillation Proximity Assay, PDE4B2; format: biochemical; conditions: Table 1B, Formula I compounds; read-out: IC50 PDE4B2
T1 construct: The full-length human PDE4B2 isozyme; His6 (N); TEV cleavage site (N); made in house; host or cells: baculovirus infected insect cells (unpurified lysate)
T1 sequence (Q07343 1-564 isoform Q07343-2): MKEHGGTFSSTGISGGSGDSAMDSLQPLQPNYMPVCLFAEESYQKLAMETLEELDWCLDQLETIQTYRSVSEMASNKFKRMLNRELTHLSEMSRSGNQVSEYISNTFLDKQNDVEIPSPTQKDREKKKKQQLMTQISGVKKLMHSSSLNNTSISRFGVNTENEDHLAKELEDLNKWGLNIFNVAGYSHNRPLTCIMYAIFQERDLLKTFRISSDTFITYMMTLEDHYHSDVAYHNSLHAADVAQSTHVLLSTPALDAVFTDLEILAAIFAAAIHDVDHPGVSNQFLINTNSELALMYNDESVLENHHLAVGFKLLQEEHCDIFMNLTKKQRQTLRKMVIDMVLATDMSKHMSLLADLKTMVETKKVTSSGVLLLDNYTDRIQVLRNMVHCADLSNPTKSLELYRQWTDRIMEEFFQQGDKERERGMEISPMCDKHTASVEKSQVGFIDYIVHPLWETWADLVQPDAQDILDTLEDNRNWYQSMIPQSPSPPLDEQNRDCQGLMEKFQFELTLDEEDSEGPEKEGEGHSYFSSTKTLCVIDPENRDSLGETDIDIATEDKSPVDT
In short: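 Unpurified His6-TEV-tagged full-length human PDE4B2 from baculovirus-infected insect cell lysate (2.5 μl of 50% glycerol stock/ml) hydrolysed [3H]cAMP in 50 mM Tris pH 7.5, 8.3 mM MgCl, 1.7 mM EGTA, 0.01% BSA for 30 min at 30°. Stopped with SPA beads in 18 mM ZnSO4; [3H]AMP scintillation counted, IC50 by non-linear regression.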

[2] = tested on: TNF alpha production in LPS-stimulated human blood (Buffy coat); assay: TNF alpha production by stimulation with LPS in whole blood cultures; format: cell-based; conditions: Homo sapiens; Table 1B, Formula I compounds; read-out: IC50 h TNFα
Protocol: Compounds were assayed to generate IC50 numbers as described in Example 54, using the following assay protocol (see Tables 3B and 4B for compounds and results).
Protocol • 1) Obtained 20 mM DMSO aliquots of desired concentrations of compounds (see Tables 3B and 4B for compounds tested and results). Placed 2 μl/well compound in DMSO in the top row of the dilution plate. Added 98 μl of RPMI 1640 media w/2.5% heat inactivated FBS.
2) Made the same media with 2% DMSO in it. Added 60 μl/well to well to make compound titration. Took 30 μl of top row and did a 1:3 dilution down the plate. In column 11 added 4 wells of 50 μM roflumilast and piclamilast. In column 12 added 2% DMSO media.
3) Transfered 20 μl/well into assay plates in duplicate.
4) Obtained human Buffy coat.
5) Diluted blood with 7 volumes of RPMI 1640 media with 1% P/S and 2.5% heat inactivated FBS (a 1:8 dilution)
6) Added160 μl/well of diluted blood to the assay plates.
7) Incubated for 1 hour at 37 degrees 5% CO2
8) Diluted LPS (which was already diluted to 1 mg/ml in PBS, 20 μl aliquots frozen −20 C.) to 10× desired final concentration to make a […] dilution (final concentration should be 100 ng/ml).
9) After 1 hour incubation added 20 μl/well of LPS to plates. A non-LPS treated background was also prepared. Samples were put on the shaker for a one minute 900 rpm.
10) Incubated for 4 hours in incubator.
11) After incubation, put on the shaker for a one minute 900 rpm and spun plate at 100 g for 10 minutes, Decel 5.
12) Carefully pipetted the top 75 μl supernatant into a new plate. Samples were frozen as needed.
Biosource hu-TNF ALPHA ELISA
• REAGENTS USED • DPBS 10×: VWR45000-428 (dilute 1:10 with Millipore Water) • TWEEN 20: FISHER BP337-500 • CAPTURE AND DETECTION ANTIBODIES: R&D DY510E • STREP-HRP: Biosource part SNN4004X • COLOR REAGENTS: R&D DY994 • STOP SOLUTION: from chemistry, or R&D DY999 • 1) Thawed samples to RT as needed. • 2) Added 50 μl Incubation buffer/well. • 3) Added 50 μl blood samples +50 μl Diluent buffer • 4) Incubated 2 hours at room temp. • 5) Washed the plate 4× with 300 μl/well wash buffer with microfill. Wash buffer was DPBS with 0.05% Tween pH 7.2-7.4 • 6) Added 100 μl biotinylated anti-TNFalpha • 7) Incubateed 1 hours at room temp. • 8) Washed the plate 4× with 300 μl/well wash buffer with microfill. Wash buffer was DPBS with 0.05% Tween pH 7.2-7.4 • 9) Added^100 μl Streptavidin-HRP working solution • 10) Incubated for 30 minutes at room temp. • 11) Washed the plate 4× with 300 μl/well wash buffer with microfill. Wash buffer was DPBS with 0.05% Tween pH 7.2-7.4 • 12) Added 100 μl Chromagen • 13) Incubated in the dark for 30 minutes until the blue color developed satisfactorily. • 14) Added 100 μl/well stop solution (2 N H2SO4). • 15) Read plate on WallacVictor at 450 nm for 0.1 sec/well

[3] = target: T2, PDE4B: The catalytic domain of human PDE4B from S152-S528 (Homo sapiens, UniProt Q07343); assay: PDE4 IC50 determination by Scintillation Proximity Assay, PDE4B; format: biochemical; conditions: Table 1B, Formula I compounds; read-out: IC50 PDE4B
T2 construct: His6 (N); thrombin cleavage site (N); made in house; host or cells: E. coli
T2 sequence (Q07343 with tags, fused parts or gaps): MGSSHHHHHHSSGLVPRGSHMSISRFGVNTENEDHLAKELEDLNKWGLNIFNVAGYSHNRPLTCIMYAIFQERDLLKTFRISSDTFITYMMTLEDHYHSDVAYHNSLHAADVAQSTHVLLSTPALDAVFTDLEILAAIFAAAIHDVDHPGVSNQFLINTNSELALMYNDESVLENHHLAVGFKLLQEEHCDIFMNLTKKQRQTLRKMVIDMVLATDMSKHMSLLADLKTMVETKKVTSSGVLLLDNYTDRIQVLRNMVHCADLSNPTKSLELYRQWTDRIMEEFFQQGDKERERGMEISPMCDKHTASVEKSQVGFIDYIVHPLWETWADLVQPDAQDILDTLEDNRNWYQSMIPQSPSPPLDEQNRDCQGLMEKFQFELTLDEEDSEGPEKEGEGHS
In short: (§1)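 Scintillation counts reflected [^3H]AMP captured on yttrium silicate SPA beads after enzyme hydrolysed [^3H]cAMP for 30 min at 30°. PDE4B was used at 80 ng/ml and PDE4D at 4 ng/ml. IC50 values came from non-linear regression.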

PDE4D = target: T3, PDE4D (Homo sapiens, UniProt Q08499); assay: PDE4 IC50 determination by Scintillation Proximity Assay, PDE4D; format: biochemical; conditions: Table 1B, Formula I compounds; read-out: IC50 PDE4D
T3 construct: PDE4D: The catalytic domain of human PDE4B from S3 16-V692; His6 (N); thrombin cleavage site (N); made in house; host or cells: E. coli
T3 sequence (Q08499 380-756): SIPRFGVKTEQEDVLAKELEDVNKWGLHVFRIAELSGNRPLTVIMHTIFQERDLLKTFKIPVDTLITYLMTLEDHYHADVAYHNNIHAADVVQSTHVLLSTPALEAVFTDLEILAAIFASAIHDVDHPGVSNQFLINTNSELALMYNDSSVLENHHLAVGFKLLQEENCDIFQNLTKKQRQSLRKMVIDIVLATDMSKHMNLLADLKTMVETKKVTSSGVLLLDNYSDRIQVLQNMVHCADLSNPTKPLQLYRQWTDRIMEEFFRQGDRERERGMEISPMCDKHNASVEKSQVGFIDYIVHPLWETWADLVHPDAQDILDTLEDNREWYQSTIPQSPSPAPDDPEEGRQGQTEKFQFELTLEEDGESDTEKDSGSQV
In short: as §1

[4] = target: T4, full-length human PDE4D5 isozyme (Homo sapiens, UniProt Q08499); assay: PDE4 IC50 determination by Scintillation Proximity Assay, PDE4D5; format: biochemical; conditions: Table 1B, Formula I compounds; read-out: IC50 PDE4D5
T4 construct: The full-length human PDE4D5 isozyme; His6 (N); TEV cleavage site (N); made in house; host or cells: baculovirus infected insect cells (unpurified lysate)
T4 sequence (Q08499 1-745 isoform Q08499-6): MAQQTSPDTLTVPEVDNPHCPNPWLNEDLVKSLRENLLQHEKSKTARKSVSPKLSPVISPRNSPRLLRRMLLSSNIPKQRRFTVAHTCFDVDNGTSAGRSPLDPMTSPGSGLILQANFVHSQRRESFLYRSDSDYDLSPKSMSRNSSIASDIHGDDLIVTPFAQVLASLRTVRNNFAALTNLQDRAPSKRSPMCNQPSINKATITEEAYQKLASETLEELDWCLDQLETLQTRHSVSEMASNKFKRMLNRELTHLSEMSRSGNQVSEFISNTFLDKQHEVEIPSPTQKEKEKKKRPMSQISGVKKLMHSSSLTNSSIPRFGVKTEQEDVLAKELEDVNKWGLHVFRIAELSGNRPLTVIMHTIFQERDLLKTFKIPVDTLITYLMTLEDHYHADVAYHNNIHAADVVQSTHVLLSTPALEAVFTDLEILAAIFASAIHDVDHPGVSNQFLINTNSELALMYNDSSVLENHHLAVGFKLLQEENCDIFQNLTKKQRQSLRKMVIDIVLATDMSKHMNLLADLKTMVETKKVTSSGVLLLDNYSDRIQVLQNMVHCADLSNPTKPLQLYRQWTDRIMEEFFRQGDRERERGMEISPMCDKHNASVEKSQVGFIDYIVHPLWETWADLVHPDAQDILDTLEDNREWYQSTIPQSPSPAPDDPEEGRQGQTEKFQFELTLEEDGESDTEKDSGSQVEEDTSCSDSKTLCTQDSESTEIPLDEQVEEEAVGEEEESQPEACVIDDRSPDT
In short: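 Unpurified His6-tagged full-length human PDE4D5 from baculovirus-infected insect cell lysate, 0.083 μl glycerol stock/ml, hydrolysed [3H]cAMP in Tris pH 7.5/MgCl/EGTA buffer, 30 min at 30°. ZnSO4/SPA beads stop; [3H]AMP counted. Controls: DMSO and roflumilast; 11-point duplicate curves, nonlinear-regression IC50.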

IC50 [1]	IC50 [2]	IC50 [3]	IC50 (PDE4D)	IC50 [4]	Compound
< 10 µM	> 10 µM	< 10 µM	< 10 µM	< 10 µM	N#Cc1c(NC2CCCC2)sc(C(=O)c2cc(-c3ccc(N)cc3)no2)c1N [Compound 1-250, 4-Amino-5-[3-(4-amino-phenyl)-isoxazole-5-carbonyl]-2-cyclopentylamino-thiophene-3-carbonitrile]
< 10 µM	> 10 µM	< 10 µM	< 10 µM	< 10 µM	Cc1nc(-c2cnccn2)sc1C(=O)c1sc(NC2CCCC2)c(C(N)=O)c1N [Compound 1-252, 4-Amino-2-cyclopentylamino-5-(4-methyl-2-pyrazin-2-yl-thiazole-5-carbonyl)-thiophene-3-carboxylic acid amide]
< 10 µM	> 10 µM	< 10 µM	< 10 µM	< 10 µM	NC(=O)c1c(NC2CCCC2)sc(C(=O)c2cc(-c3ccc(N)cc3)no2)c1N [Compound 1-253, 4-Amino-5-[3-(4-amino-phenyl)-isoxazole-5-carbonyl]-2-cyclopentylamino-thiophene-3-carboxylic acid amide]
< 10 µM	< 10 µM	< 10 µM	< 10 µM	< 10 µM	CC(C)CNc1sc(C(=O)c2cc(-c3ccc(N)cc3)no2)c(N)c1C(N)=O [Compound 1-254, 4-Amino-5-[3-(4-amino-phenyl)-isoxazole-5-carbonyl]-2-isobutylamino-thiophene-3-carboxylic acid amide]
